ChEMBL document CHEMBL3044798, “Nitrogen concentration and application timing affect imazamox efficacy in winter wheat” (Crop Prot, 2009)
Calls of active or inactive are those of the source.

Tests used:
Assay type in all cases: functional, organism-based
Aegilops cylindrica [1] = test: Herbicidal activity against Aegilops cylindrica treated as spring post-emergence application at winter wheat-growing season relative to urea ammonium nitrate
Secale cereale [2] = test: Herbicidal activity against feral Secale cereale (rye) treated as spring post-emergence application at winter wheat-growing season in presence of urea ammonium nitrate
Secale cereale [3] = test: Herbicidal activity against feral Secale cereale (rye) treated as fall post-emergence application at winter wheat-growing season in presence of urea ammonium nitrate
Aegilops cylindrica [4] = test: Herbicidal activity against Aegilops cylindrica treated as fall post-emergence application at winter wheat-growing season relative to urea ammonium nitrate

Measured: Activity

COCc1cnc(C2=NC(C)(C(C)C)C(=O)N2)c(C(=O)O)c1 (centres undefined)
active: all assays above
